The results in this text go back to patent US20230098995A1 (SYNGENTA CROP PROTECTION AG, priority 2020, published 2023).

For this experiment, the system named is Corynespora cassiicola. The experiment in a line: Corynespora cassiicola liquid culture growth inhibition (microtiter plate, PDB). It counts as cell-based. The conditions noted are these: photometric at 620 nm after 3-4 days at 24 C, compared to untreated control. Here is the method: Conidia of the fungus from cryogenic storage were directly mixed into nutrient broth (PDB potato dextrose broth). A DMSO solution of the test compounds was placed into a microtiter plate (96-well format) and the nutrient broth containing the fungal spores was added to it. The test plates were incubated at 24 C and the inhibition of growth (% control of Corynespora cassiicola) was determined photometrically after 3-4 days at 620 nm. The activity of a compound is derived by comparing the inhibition of growth in the treated test solution to the growth in the untreated check. The concentration of the compounds was 6.7, 2.2, 0.74, 0.25, 0.082 and 0.027 ppm.

Bounds are passed on as bounds.

In the case of `CC(C)CC(C)(Cc1ccccc1)NC(=O)c1cnc2c(F)cccc2c1` (centres unmarked) [Compound 2], the inhibition (commonly the drop in the measured response relative to a control, in per cent) at 6.7 ppm is no less than 70%.
The molecule `C=C(Cl)CC(C)(Cc1ccccc1)NC(=O)c1cnc2c(F)cccc2c1` (centres unmarked) [Compound 4] showed an inhibition at 6.7 ppm of no less than 70%.
In the case of `CC(C)CC(C)(Cc1cccc(F)c1)NC(=O)c1cnc2c(F)cccc2c1` (centres unmarked) [Compound 6] it was no less than 70%; in that of `CC(C)C[C@](C)(Cc1ccccc1)NC(=O)c1cnc2c(F)cccc2c1` [Compound 9], no less than 70%.
The figure for `C[C@](Cc1ccccc1)(CC(F)(F)F)NC(=O)c1cnc2c(F)cccc2c1` [Compound 11] is no less than 70%.
The figure for `C[C@@](Cc1ccccc1)(CC(F)(F)F)NC(=O)c1cnc2c(F)cccc2c1` [Compound 12] is no less than 70%; for `C=C(Cl)C[C@](C)(Cc1ccccc1)NC(=O)c1cnc2c(F)cccc2c1` [Compound 13] it is no less than 70%.
Molecule `CC(C)C[C@@](C)(Cc1ccccc1)NC(=O)c1cnc2c(F)c(F)ccc2c1` [Compound 16] displayed an inhibition at 6.7 ppm of no less than 70%.
